pEC50: −log10 of the molar value. In brackets after ≈: the same amount, converted by molar mass. Read-outs that look alike come from different tables or passages of the source.
How the values were obtained:
[1] = system: S. aureus MRSA ATCC 33591; test: Antibacterial MIC; assay type: cell-based, Staphylococcus aureus; conditions: for MIC: Staphylococcus aureus, read-out: MIC S. aureus MRSA ATCC 33591
E. faecalis 15376 VanA = test: Antibacterial MIC; assay type: cell-based, Enterococcus faecalis; conditions: for MIC: Enterococcus faecalis, 15376VANA, read-out: MIC E. faecalis 15376 VanA
[2] = system: Enterococcus faecalis ATCC 29212; test: Antibacterial MIC; assay type: cell-based; conditions: for MIC: Enterococcus faecalis, ATCC29212, read-out: MIC Enterococcus faecalis ATCC 29212
[3] = system: Staphylococcus aureus MSSA ATCC 29213; test: Antibacterial MIC; assay type: cell-based; conditions: for MIC: Staphylococcus aureus, read-out: MIC Staphylococcus aureus MSSA ATCC 29213
[4] = system: Bacillus subtilis ATCC 6633; test: Antibacterial MIC; assay type: cell-based; conditions: for MIC: Bacillus subtilis, ATCC6633, read-out: MIC Bacillus subtilis ATCC 6633
[5] = system: E. faecalis ATCC 51299 VanB; test: Antibacterial MIC; assay type: cell-based, Enterococcus faecalis; conditions: for MIC: Enterococcus faecalis, ATCC51299, read-out: MIC E. faecalis ATCC 51299 VanB
[6] = system: Staphylococcus epidermidis ATCC 35984 biofilm; test: Antibacterial MIC; assay type: cell-based
[7] = system: HEL human embryonic lung fibroblast cells
HeLa cells = conditions: human
Vero cells = conditions: African green monkey
[8] = system: influenza A and B viruses; assay type: cell-based, influenza virus
[9] = system: influenza A/H3N2 A/Victoria/361/11; test: microbe, parasite or virus in culture; assay type: cell-based, influenza A virus
[10] = system: influenza B virus B/Ned/537/05; test: CPE reduction assay for influenza virus in MDCK cells, influenza B; assay type: cell-based; conditions: MDCK cells
Method: The CPE reduction assay for influenza virus was described in full detail in previous publications.41 The virus strains were: A/PR/8/34 (A/H1 N1); A/Virginia/ATCC3/2009 (A/H1 N1pdm); A/HK/7/87 (A/H3 N2); B/Ned/537/05; and B/HK/5/72. On day 0, Madin‐Darby canine kidney (MDCK) cells in 96‐well plates were infected with influenza virus at a multiplicity of infection (MOI) of 0.0004 plaque forming units (PFU) per cell. After three days incubation at 35 °C, virus‐induced CPE and compound cytotoxicity were scored by microscopy, after which the data were confirmed by formazan‐based MTS cell viability assay (CellTiter 96® AQueous One Solution Cell Proliferation Assay from Promega). The antiviral effect was expressed as the compound concentration producing 50 % inhibition of the virus‐induced CPE (EC50). Compound cytotoxicity was expressed as the compound concentration causing minimal changes in cell morphology (MCC), and 50 % cytotoxic concentration (CC50) based on MTS assay.42

[11] = system: influenza A/H1N1 A/Ned/378/05; test: microbe, parasite or virus in culture; assay type: cell-based, influenza A virus

Row | Compound | CC50 (MDCK cells; dog) [µM] | Cytotoxicity MCC (minimum cytotoxic concentration) (MDCK cells; dog) [µM] | MIC [1] [µg/mL] | MIC (E. faecalis 15376 VanA) [µg/mL] | MIC [2] [µg/mL] | MIC [3] [µg/mL] | MIC [4] [µg/mL] | MIC [5] [µg/mL] | MIC Staphylococcus epidermidis ATCC 35984 biofilm [6] [µg/mL] | CC50 [7] [µM] | CC50 (HeLa cells) [µM] | CC50 (Vero cells) [µM] | Activity against influenza strains (in words) [8] | also measured
1 | CC(=O)N[C@H]1[C@H](O[C@@H]2c3ccc(c(Cl)c3)Oc3cc4cc(c3O)Oc3ccc(cc3Cl)C[C@H]3NC(=O)[C@H](N=[N+]=[N-])c5ccc(O)c(c5)Oc5cc(O)cc(c5)[C@H](NC3=O)C(=O)N[C@H]4C(=O)N[C@H]3C(=O)N[C@@H]2C(=O)N[C@H](C(=O)O)c2cc(O)cc(O)c2-c2cc3ccc2O)O[C@H](CO)[C@@H](O)[C@@H]1O [Compound 14] | > 100 | >100 |  |  |  |  |  |  |  |  |  |  |  | 
2 | CN[C@H](CC(C)C)C(=O)N[C@H]1C(=O)N[C@@H](CC(N)=O)C(=O)N[C@H]2C(=O)N[C@H]3C(=O)N[C@H](C(=O)N[C@H](C(=O)O)c4cc(O)cc(O)c4-c4cc3ccc4O)[C@H](O)c3ccc(c(Cl)c3)Oc3cc2cc(c3O[C@@H]2O[C@H](CO)[C@@H](O)[C@H](O)[C@H]2O[C@H]2C[C@](C)(N)[C@H](O)[C@H](C)O2)Oc2ccc(cc2Cl)[C@H]1O [VAN, vancomycin] |  |  | 0.5 (≈ 0.345 µM) | 256 (≈ 177 µM) | 1 (≈ 0.69 µM) | 0.5 (≈ 0.345 µM) | 0.5 (≈ 0.345 µM) | 128 (≈ 88.3 µM) | 2 (≈ 1.38 µM) |  |  |  |  | 
3 | CC(=O)NC1C(OC2c3ccc(c(Cl)c3)Oc3cc4cc(c3O)Oc3ccc(cc3Cl)CC3NC(=O)C(n5cc(COCCOCCOCCOCCOCCCC(F)(F)C(F)(F)C(F)(F)C(F)(F)C(F)(F)C(F)(F)C(F)(F)C(F)(F)F)nn5)c5ccc(O)c(c5)Oc5cc(O)cc(c5)C(NC3=O)C(=O)NC4C(=O)NC3C(=O)NC2C(=O)NC(C(=O)O)c2cc(O)cc(O)c2-c2cc3ccc2O)OC(CO)C(O)C1O (centres unmarked) [Compound 18] | 4.2 |  | 4 (≈ 1.89 µM) | 32 (≈ 15.1 µM) | 16 (≈ 7.55 µM) | 8 (≈ 3.77 µM) | 4 (≈ 1.89 µM) | 32 (≈ 15.1 µM) | 4 (≈ 1.89 µM) | > 100 | 41 | > 100 | without antiviral activity | Cytotoxicity in MDCK cells (in words) (MDCK cells): high cytotoxicity
4 | CC(=O)NC1C(OC2c3ccc(c(Cl)c3)Oc3cc4cc(c3O)Oc3ccc(cc3Cl)CC3NC(=O)C(n5cc(COCCOCCCC(F)(F)C(F)(F)C(F)(F)C(F)(F)F)nn5)c5ccc(O)c(c5)Oc5cc(O)cc(c5)C(NC3=O)C(=O)NC4C(=O)NC3C(=O)NC2C(=O)NC(C(=O)O)c2cc(O)cc(O)c2-c2cc3ccc2O)OC(CO)C(O)C1O (centres unmarked) [Compound 15] | > 100 | 100 | 0.5 (≈ 0.28 µM) | 1 (≈ 0.559 µM) | 0.5 (≈ 0.28 µM) | 0.5 (≈ 0.28 µM) | 0.5 (≈ 0.28 µM) | 4 (≈ 2.24 µM) | 0.5 (≈ 0.28 µM) | > 100 | 43 | > 100 | robust activity | Cytotoxicity MCC (Vero cells): > 100
5 | CC(=O)NC1C(OC2c3ccc(c(Cl)c3)Oc3cc4cc(c3O)Oc3ccc(cc3Cl)CC3NC(=O)C(n5cc(COCCOCCOCCOCCOCCCC(F)(F)C(F)(F)C(F)(F)C(F)(F)F)nn5)c5ccc(O)c(c5)Oc5cc(O)cc(c5)C(NC3=O)C(=O)NC4C(=O)NC3C(=O)NC2C(=O)NC(C(=O)O)c2cc(O)cc(O)c2-c2cc3ccc2O)OC(CO)C(O)C1O (centres unmarked) [Compound 16] | 97 | 100 | 0.5 (≈ 0.26 µM) | 2 (≈ 1.04 µM) | 1 (≈ 0.521 µM) | 0.5 (≈ 0.26 µM) | 2 (≈ 1.04 µM) | 1 (≈ 0.521 µM) | 0.5 (≈ 0.26 µM) | > 100 | > 100 | > 100 | robust activity | Cytotoxicity MCC (HeLa cells): > 100
6 | teicoplanin [reference compound] |  |  |  |  |  |  |  |  | 2 |  |  |  |  | MIC S. aureus MRSA ATCC 33591 ([1]; methicillin-resistant): 0.5 µg/mL; MIC E. faecalis 15376 VanA (E. faecalis 15376 VanA; vanA gene positive): 256 µg/mL; pEC50 ([9]; read-out: Antiviral EC50 A/H3N2 CPE): < 4.00; pEC50 ([9]; read-out: Antiviral EC50 A/H3N2 MTS): < 4.00; MIC Enterococcus faecalis ATCC 29212 [2]: 2 µg/mL; MIC Staphylococcus aureus MSSA ATCC 29213 ([3]; methicillin-sensitive): 0.5 µg/mL; MIC Bacillus subtilis ATCC 6633 [4]: 0.5 µg/mL; MIC E. faecalis ATCC 51299 VanB ([5]; vanB gene positive): 4 µg/mL; CC50 (MDCK cells): > 100 µM; Cytotoxicity MCC (minimum cytotoxic concentration) (MDCK cells): >100 µM; pEC50 ([10]; B/Ned/537/05, MTS assay, read-out: Antiviral EC50 Influenza B MTS): < 4.00; pEC50 ([10]; B/Ned/537/05, visual CPE scoring, read-out: Antiviral EC50 Influenza B CPE): < 4.00; pEC50 ([11]; read-out: Antiviral EC50 A/H1N1 CPE): < 4.00; pEC50 ([11]; read-out: Antiviral EC50 A/H1N1 MTS): < 4.00

From PMC7540527, “Synthesis of Antiviral Perfluoroalkyl Derivatives of Teicoplanin and Vancomycin” (Chemmedchem, 2020)
